# What was measured:
# Tyro-3 (h) = molecular target: T1, Tyro-3 (h) (Homo sapiens, UniProt Q06418); assay: Enzymatic activity assay, Tyro-3 (h), [γ-33P]-ATP filter assay; assay type: biochemical; conditions: 10 μM ATP, 40 min room temperature; read-out: Inhibitory activity IC50 Tyro-3(h)
# T1 sequence (Q06418 41-890): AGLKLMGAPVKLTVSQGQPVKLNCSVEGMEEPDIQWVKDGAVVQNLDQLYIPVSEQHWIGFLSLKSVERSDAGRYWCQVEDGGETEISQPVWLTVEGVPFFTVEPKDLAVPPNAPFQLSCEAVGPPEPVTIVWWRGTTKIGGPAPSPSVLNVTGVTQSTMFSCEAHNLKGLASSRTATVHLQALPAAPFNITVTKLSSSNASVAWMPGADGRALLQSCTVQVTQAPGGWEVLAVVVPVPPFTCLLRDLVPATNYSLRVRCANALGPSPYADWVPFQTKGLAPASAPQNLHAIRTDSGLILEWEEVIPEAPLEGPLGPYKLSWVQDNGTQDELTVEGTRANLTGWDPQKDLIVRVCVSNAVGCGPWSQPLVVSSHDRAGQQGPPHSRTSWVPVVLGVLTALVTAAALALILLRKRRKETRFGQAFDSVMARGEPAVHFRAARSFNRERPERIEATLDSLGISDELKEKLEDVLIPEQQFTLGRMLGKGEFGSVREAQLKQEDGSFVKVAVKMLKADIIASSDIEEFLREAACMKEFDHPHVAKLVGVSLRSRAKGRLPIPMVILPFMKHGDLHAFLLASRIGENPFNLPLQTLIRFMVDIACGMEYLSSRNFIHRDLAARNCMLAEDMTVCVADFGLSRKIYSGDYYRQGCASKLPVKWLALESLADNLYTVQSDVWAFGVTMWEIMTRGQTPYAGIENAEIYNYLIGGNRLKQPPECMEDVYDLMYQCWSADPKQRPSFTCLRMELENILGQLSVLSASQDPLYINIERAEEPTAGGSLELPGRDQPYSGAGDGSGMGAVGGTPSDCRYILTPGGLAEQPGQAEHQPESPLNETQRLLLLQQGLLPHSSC
# Method: Compounds were each dissolved in 100% DMSO to prepare stock solutions with a maximum concentration of 500 μM.
# Compound working solutions (50×) were prepared by diluting a compound stock solution to a final concentration of 500, 150, 50, 15, 5, 1.5, 0.5, 0.15 and 0.05 μM.
# An enzyme solution with a final concentration of 38 nM was prepared by dissolving Tyro3 (h) enzyme in a mixture of 8 mM MOPS (pH 7.0), 0.2 mM EDTA, 1 mM MnCl2 and 250 μM KVEKIGEGTYGVVYK. A Mg/ATP mixture of 10 mM magnesium acetate and 10 μM [γ-^33P]-ATP was used to activate the enzymatic reaction.
# A compound working solution was added to a 384-well plate, with final concentrations of 10,000, 3,000, 1,000, 300, 100, 30, 10, 3 and 1 nM, and then different enzymatic reaction solutions prepared according to the above conditions were added. The reaction solutions were incubated at room temperature for 40 min, and then 0.5% phosphoric acid solutions were added to terminate the reaction. 10 μL of the reaction solution was added dropwise to P30 filter paper, washed 4 times with a 0.425% phosphoric acid solution and once with methanol, and then placed in a scintillation counter for detection. Gray analysis was performed on the results with Image J software, and IC50 values were calculated with GraphPad 5.0 software.
# [1] = Liver microsomal stability; assay type: in vitro ADME; conditions: mouse liver microsomes, 0.5 mg protein/mL, 1 μM compound
# Method: An appropriate amount of the compound was precisely weighed and dissolved in DMSO to prepare a 5.0 mM stock solution. The 5.0 mM stock solution was diluted with DMSO to 1.0 mM, and finally diluted with water to a 10 μM working solution of the test sample for use (the DMSO content in the reaction system was 0.1%).
# (1) The liver microsomes (20 mg protein/mL) were taken from a −80° C. refrigerator, pre-incubated on a 37° C. water bath thermostatic oscillator for 3 min, and thawed for use.
# (2) An incubation system (without compound and β-NADPH) was prepared according to “composition of the incubation system” described above, and pre-incubated on a 37° C. water bath thermostatic oscillator for 2 min.
# (3) Control group (without β-NADPH): 30 μL of water and 30 μL of compound working solution (10 μM) were added to 240 μL of the incubation system in step (2), and the reaction system was vortexed for 30 s and thoroughly mixed. The total volume of the reaction system was 300 μL. The sample was duplicated. The reaction solution was placed on a 37° C. water bath thermostatic oscillator for incubation, and timing was started. The sampling was conducted at 0 min and 60 min.
# (4) Sample group: 70 μL of β-NADPH solution (10 mM) and 70 μL of compound working solution (10 μM) were added to 560 μL of the incubation system in step (2), and the total volume of the reaction system was 700 μL. The reaction solution was vortexed for 30 s and thoroughly mixed. The sample was duplicated. The reaction solution was placed on a 37° C. water bath thermostatic oscillator for incubation, and timing was started. The sampling was conducted at 0 min, 5 min, 10 min, 20 min, 30 min and 60 min.
# (5) The reaction solution was vortexed for 3 min, and centrifuged at 12,000 rpm for 5 min.
# (6) 50 μL of the supernatant was added to 150 μL of water, and the resulting solution was thoroughly vortexed and analyzed by LC/MS/MS.
IC50 (Tyro-3 (h)),half-life at 1 μM [1],microsomal CLint at 1 μM [1],SMILES
321 nM,1.6 h,14.4 µL/min/mg,"Cc1ccc(-c2cn(C3CCOCC3)nc(C(=O)Nc3ccc(Oc4ccnc5cc6c(cc45)OCO6)cn3)c2=O)cc1 [Compound 29, N-(5-([1,3]dioxolo[4,5-g]quinolin-8-yloxy)pyridin-2-yl)-4-oxo-1-(tetrahydro-2H-pyran-4-yl)-5-(p-tolyl)-1,4-dihydropyridazin-3-carboxamide]"
318 nM,1.38 h,16.8 µL/min/mg,"Cc1ccc(-c2cn(C3CCOCC3)nc(C(=O)Nc3ccc(Oc4ccnc5cc6c(cc45)OCCO6)cn3)c2=O)cc1 [Compound 30, N-(5-((2,3-dihydro-[1,4]dioxino[2,3-g]quinolin-9-yl)oxy)pyridin-2-yl)-4-oxo-1-(tetrahydro-2H-pyran-4-yl)-5-(p-tolyl)-1,4-dihydropyridazin-3-carboxamide]"
78 nM,6.42 h,3.6 µL/min/mg,"COc1cc2nccc(Oc3cnc(NC(=O)c4cn(C5CCOCC5)cc(-c5ccc(F)cc5)c4=O)nc3)c2cc1OC [Compound 31, N-(5-((6,7-dimethoxyquinolin-4-yl)oxy)pyrimidin-2-yl)-5-(4-fluorophenyl)-4-oxo-1-(tetrahydro-2H-pyran-4-yl)-1,4-dihydropyridin-3-carboxamide]"
35 nM,1.39 h,16.6 µL/min/mg,"COc1cc2nccc(Oc3ccc(NC(=O)c4cc(CC5CCOCC5)cn(-c5ccc(F)cc5)c4=O)nc3)c2cc1OC [Compound 32, N-(5-((6,7-dimethoxyquinolin-4-yl)oxy)pyridin-2-yl)-1-(4-fluorophenyl)-2-oxo-5-((tetrahydro-2H-pyran-4-yl)methy 1)-1,2-dihydropyridin-3-carboxamide]"
23 nM,4.82 h,4.8 µL/min/mg,"COc1cc2nccc(Oc3cnc(NC(=O)c4nn(C5CCOCC5)cc(-c5ccc(F)cc5)c4=O)nc3)c2cc1OC [Compound 33, N-(5-((6,7-dimethoxyquinolin-4-yl)oxy)pyrimidin-2-yl)-5-(4-fluorophenyl)-4-oxo-1-(tetrahydro-2H-pyran-4-yl)-1,4-dihydropyridazin-3-carboxamide]"
19 nM,5.25 h,4.4 µL/min/mg,"COc1cc2nccc(Oc3ccc(NC(=O)c4nn(C5CCOCC5)cc(-c5ccc(F)cc5)c4=O)nc3)c2cc1OC [Compound 34, N-(5-((6,7-dimethoxyquinolin-4-yl)oxy)pyridin-2-yl)-5-(4-fluorophenyl)-4-oxo-1-(tetrahydro-2H-pyran-4-yl)-1,4-dihydropyridazin-3-carboxamide]"

# Reference: US20210177828A1, “TAM FAMILY KINASE /AND CSF1R KINASE INHIBITOR AND USE THEREOF” (Nanjing Transthera Biosciences Co., Ltd., priority 2018, published 2021)
